# Measurements reported in patent US8501090B2, “Anti-microbial gas apparatus and method” (priority 2008, dated 2013).
# System: bacteria on healthy skin (back of the hand)
# Assay: Anti-microbial effectiveness of nitric oxide on volunteers' hands (swab, five zone dilution on agar, zone-based grading)
# Type: in vivo
# Source text: An experiment 46 used to determine the anti-microbial effectiveness of nitric oxide is illustrated in FIG. 3. In the experiment, five volunteers were selected 48. From a first hand of each volunteer, a technician using sterile gloves collected 50 a sample. This was accomplished by rubbing the back of the volunteer's hand with a sterile cotton collection swab for ten seconds. The swab was then applied 52 to a nutrient agar petri dish using the five corner or zone dilution method.
# The five corner or zone dilution method involves mechanically diluting bacteria on a streak (blood agar) plate by sequentially spreading the bacteria across the plate in each of five zones. As the concentration of bacteria increases so do the number of zones containing bacteria. Bacteria on agar plate become visible as distinct circular colonies. Each colony represents an individual cell which has divided repeatedly to form a patch. The number of bacteria can be estimated by counting the number of patches or how far the bacteria is diluted by streaking it on the agar plate through the five zones.
# After the sample was collected 50, the first hand was cleaned 54 using nitric oxide. This was done by placing the hand of the volunteer into a one-gallon plastic freezer bag. The bag was then inflated with nitric oxide through tubing attached to a portable nitric oxide generator. The open end of the bag was taped closed against the volunteer's forearm. A nitric oxide monitor assisted in keeping the nitric oxide concentration within the bag at 1,000 parts-per-million (ppm).
# The volunteer maintained the hand inside the bag for fifteen minutes. After the fifteen minutes, the hand was removed from the bag in a sterile manner (i.e., the hand was not permitted to contact any non-sterile objects). Using sterile gloves and a sterile cotton collection swab, the technician collected 56 a second sample by rubbing the swab on the back of the hand for ten seconds. The swab was then applied 58 to a nutrient dish as explained above.
# A similar process was followed with the volunteer's other hand. […]
smiles,measurement,setting,value
[N]=O [nitric oxide],reductions in colony counts of bacteria,"bacteria exposed to nitric oxide, microbes on healthy skin",substantial reductions in colony counts
same,anti-microbial effects,direct comparison: immersing in enclosed environment of nitric oxide diluted with ambient air vs scrubbing with antibacterial soaps,superior to soaps
same,bacterial colony count,"hands exposed to 1,000 ppm nitric oxide for fifteen minutes, compared with hands washed with DIAL antibacterial soap for 2 minutes, five volunteers",lower bacterial colony count
